The results in this text go back to ChEMBL document CHEMBL3872258, “Challenges in the development of an M4 PAM in vivo tool compound: The discovery of VU0467154 and unexpected DMPK profiles of close analogs” (Bioorg Med Chem Lett, 2017).

Usually CLint scaled stands for the capacity of the preparation to metabolise the compound, expressed as a volume cleared per time. The low end stands for greater metabolic stability, the high end for faster metabolism. As usually defined, the fraction unbound is free concentration divided by total concentration. A high value points to much free substance. Broadly, the IC50 is the point on the concentration scale where inhibition reaches its midpoint. A higher IC50 goes with a need for much substance. As usually defined, the half-life is the time needed for the level to fall by half in the phase considered. Higher therefore signals slow loss. What is called EC50 is the midpoint of the concentration-response curve. One may read the Kp as tissue or fluid exposure divided by exposure in the circulation. The term Vdss denotes a proportionality between amount in the body and measured concentration, not a real space. Read a high Vdss as wide distribution into tissue.

Data set [1] in a line: Intrinsic clearance in rat. The format is ADME.
The nature of data set [2]: Intrinsic clearance in human. It is filed as ADME.
Data set [3] in a line: Unbound fraction in human plasma. It is filed as ADME, cell-free.
A short description of data set [4]: Unbound fraction in rat brain. To be noted: for fraction unbound: brain. The format is ADME, tissue-based.
Another data set addresses Cytochrome P450 2D6 (Homo sapiens, UniProt P10635). Description: Inhibition of CYP2D6 (unknown origin). It is filed as ADME.
In the next data set the target is Cytochrome P450 3A4 (Homo sapiens, UniProt P08684). Kind of data set: Inhibition of CYP3A4 (unknown origin). It is filed as ADME.
Chain of Cytochrome P450 3A4 (P08684 whole entry): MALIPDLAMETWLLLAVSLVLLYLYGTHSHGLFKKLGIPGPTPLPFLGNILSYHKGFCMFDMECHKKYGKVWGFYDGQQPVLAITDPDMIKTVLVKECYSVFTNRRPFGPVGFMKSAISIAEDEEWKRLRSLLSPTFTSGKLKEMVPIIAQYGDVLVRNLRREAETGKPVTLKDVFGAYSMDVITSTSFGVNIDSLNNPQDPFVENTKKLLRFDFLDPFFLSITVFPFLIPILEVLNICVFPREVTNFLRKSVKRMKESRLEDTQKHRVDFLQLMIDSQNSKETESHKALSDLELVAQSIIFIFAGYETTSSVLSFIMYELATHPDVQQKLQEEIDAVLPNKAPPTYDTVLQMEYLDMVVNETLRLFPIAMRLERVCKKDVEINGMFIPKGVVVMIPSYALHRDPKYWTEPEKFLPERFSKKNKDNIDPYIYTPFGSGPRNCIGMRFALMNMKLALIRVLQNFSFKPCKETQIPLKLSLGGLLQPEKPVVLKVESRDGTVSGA
Data set [5] can be described thus: Half life in Sprague-Dawley rat at 1 mg/kg, iv. It is filed as ADME, organism-based. To be noted: in vivo; for half-life: Sprague-Dawley.
Data set [6] in a line: Volume of distribution at steady state in Sprague-Dawley rat at 1 mg/kg, iv. To be noted: in vivo; for Vd: Sprague-Dawley, read-out: Vdss. The format is ADME, organism-based.
Data set [7] is described as follows: Ratio of unbound concentration in brain to plasma in Sprague-Dawley rat at 1 mg/kg, ip at 0.25 hrs. The format is ADME, organism-based.
A further data set has as its system Rattus norvegicus. Description: Reversal of amphetamine-induced hyperlocomotion in Sprague-Dawley rat at 10 mg/kg, po administered 30 mins after habituation in the chamber followed by amphetamine injection measured for 60 mins. The format is functional.
In data set [8] the target is T1, Muscarinic acetylcholine receptor M1 (Homo sapiens, UniProt P11229).
T1 sequence (P11229 whole entry): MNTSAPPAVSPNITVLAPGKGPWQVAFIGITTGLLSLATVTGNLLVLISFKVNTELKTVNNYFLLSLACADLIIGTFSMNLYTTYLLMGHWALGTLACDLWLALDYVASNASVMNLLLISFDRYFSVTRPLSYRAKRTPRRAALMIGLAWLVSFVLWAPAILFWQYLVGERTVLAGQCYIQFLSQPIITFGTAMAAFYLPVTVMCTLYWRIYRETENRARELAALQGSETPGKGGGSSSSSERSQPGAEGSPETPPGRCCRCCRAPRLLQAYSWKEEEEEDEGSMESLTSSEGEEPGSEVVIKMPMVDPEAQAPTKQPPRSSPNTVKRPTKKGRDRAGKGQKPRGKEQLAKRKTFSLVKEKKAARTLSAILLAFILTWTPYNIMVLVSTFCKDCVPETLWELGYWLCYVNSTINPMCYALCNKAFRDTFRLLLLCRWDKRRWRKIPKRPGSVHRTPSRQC
Description: Displacement of [3H]-N-Methylscopolamine from human M1 receptor expressed in CHOK1 cells. The format is cell-based, CHO-K1.

Data set [9] addresses T2, Muscarinic acetylcholine receptor M2 (Homo sapiens, UniProt P08172).
T2 sequence (P08172 whole entry): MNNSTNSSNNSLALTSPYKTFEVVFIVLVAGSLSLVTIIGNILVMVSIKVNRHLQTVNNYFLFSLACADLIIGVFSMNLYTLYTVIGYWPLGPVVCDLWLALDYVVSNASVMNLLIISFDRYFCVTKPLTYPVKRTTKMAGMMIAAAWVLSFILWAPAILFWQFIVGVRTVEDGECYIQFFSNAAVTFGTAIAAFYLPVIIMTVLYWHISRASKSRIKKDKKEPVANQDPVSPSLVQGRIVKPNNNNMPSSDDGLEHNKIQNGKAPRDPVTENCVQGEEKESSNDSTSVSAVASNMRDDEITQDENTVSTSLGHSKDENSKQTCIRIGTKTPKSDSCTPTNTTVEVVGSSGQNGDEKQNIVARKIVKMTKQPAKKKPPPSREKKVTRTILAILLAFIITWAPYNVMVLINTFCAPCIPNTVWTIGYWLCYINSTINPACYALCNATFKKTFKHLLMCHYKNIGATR
Kind of data set: Displacement of [3H]-N-Methylscopolamine from human M2 receptor expressed in CHOK1 cells. It is filed as cell-based, CHO-K1. For orientation: In a radioligand displacement assay an active substance lowers the binding of a labelled ligand.

For data set [10], the target named is Muscarinic acetylcholine receptor M3 (Homo sapiens, UniProt P20309). Kind of data set: Displacement of [3H]-N-Methylscopolamine from human M3 receptor expressed in CHOK1 cells. The format is cell-based, CHO-K1.
Chain of Muscarinic acetylcholine receptor M3 (Homo sapiens, UniProt P20309) (P20309 whole entry): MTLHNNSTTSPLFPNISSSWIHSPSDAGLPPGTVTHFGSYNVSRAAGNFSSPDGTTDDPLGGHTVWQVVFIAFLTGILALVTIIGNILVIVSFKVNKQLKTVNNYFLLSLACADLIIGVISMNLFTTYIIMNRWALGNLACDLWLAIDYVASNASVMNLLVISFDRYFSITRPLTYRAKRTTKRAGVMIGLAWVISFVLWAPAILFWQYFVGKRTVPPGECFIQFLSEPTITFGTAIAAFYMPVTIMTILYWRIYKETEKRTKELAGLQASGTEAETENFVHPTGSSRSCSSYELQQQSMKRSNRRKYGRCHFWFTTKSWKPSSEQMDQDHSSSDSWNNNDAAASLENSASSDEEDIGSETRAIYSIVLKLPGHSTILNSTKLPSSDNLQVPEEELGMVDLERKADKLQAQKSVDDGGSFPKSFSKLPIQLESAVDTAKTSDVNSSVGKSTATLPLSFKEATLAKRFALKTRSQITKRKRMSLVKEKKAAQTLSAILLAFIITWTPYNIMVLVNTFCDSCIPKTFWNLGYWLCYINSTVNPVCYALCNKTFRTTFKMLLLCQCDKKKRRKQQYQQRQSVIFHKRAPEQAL
Data set [11] addresses T3, Muscarinic acetylcholine receptor M2 (Rattus norvegicus, UniProt P10980).
T3 sequence (P10980 whole entry): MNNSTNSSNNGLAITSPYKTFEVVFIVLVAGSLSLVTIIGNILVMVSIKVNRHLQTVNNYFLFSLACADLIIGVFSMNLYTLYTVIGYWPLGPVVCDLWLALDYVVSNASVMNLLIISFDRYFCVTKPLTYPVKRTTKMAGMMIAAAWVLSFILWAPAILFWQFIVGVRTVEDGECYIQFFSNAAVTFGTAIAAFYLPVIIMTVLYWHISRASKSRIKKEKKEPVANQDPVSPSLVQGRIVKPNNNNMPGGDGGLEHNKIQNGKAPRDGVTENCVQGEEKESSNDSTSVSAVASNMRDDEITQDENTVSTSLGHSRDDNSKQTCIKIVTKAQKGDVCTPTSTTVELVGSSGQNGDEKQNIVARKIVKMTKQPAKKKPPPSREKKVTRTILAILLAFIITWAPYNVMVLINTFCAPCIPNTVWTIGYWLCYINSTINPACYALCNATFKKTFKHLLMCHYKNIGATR
Kind of data set: Binding affinity to rat M2 receptor by radio-ligand binding assay.

The target in data set [12] is Muscarinic acetylcholine receptor M3 (Rattus norvegicus, UniProt P08483). Kind of data set: Binding affinity to rat M3 receptor by radio-ligand binding assay.
Chain of Muscarinic acetylcholine receptor M3 (Rattus norvegicus, UniProt P08483) (P08483 whole entry): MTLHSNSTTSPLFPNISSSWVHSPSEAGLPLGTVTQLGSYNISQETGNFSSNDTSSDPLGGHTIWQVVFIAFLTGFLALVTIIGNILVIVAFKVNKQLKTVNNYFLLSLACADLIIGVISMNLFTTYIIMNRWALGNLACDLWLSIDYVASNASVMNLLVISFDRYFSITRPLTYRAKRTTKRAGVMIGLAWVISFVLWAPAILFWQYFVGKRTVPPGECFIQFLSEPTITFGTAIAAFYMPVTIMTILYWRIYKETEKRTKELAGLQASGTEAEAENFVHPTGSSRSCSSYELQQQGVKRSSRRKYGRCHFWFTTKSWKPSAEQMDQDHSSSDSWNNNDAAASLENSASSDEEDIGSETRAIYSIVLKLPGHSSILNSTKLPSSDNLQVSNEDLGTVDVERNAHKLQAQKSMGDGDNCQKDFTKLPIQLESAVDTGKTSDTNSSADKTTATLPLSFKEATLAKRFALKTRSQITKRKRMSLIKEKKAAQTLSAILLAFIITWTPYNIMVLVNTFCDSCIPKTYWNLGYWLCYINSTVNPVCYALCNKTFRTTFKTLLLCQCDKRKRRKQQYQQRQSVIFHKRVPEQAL
For data set [13], the target named is T4, Muscarinic acetylcholine receptor M5 (Rattus norvegicus, UniProt P08911).
T4 sequence (P08911 whole entry): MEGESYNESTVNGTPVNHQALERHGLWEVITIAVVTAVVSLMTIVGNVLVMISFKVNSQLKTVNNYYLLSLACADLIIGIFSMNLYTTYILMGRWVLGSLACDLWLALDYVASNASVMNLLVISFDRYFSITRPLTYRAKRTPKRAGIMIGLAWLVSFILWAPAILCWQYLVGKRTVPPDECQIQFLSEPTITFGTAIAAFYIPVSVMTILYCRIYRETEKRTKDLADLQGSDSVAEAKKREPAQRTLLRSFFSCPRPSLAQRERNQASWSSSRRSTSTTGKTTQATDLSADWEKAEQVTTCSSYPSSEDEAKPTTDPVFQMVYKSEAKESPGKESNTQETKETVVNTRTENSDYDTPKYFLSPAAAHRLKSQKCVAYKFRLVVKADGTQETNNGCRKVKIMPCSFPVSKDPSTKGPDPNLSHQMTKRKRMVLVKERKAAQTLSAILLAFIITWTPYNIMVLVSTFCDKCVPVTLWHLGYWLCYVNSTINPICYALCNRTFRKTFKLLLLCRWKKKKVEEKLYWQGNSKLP
Kind of data set: Binding affinity to rat M5 receptor by radio-ligand binding assay.

Data set [14] in a line: Ratio of total drug level in Sprague-Dawley rat brain to plasma at 0.20-0.25 mg/kg, iv at 0.25 hrs.

Chain of Cytochrome P450 2D6 (P10635 whole entry): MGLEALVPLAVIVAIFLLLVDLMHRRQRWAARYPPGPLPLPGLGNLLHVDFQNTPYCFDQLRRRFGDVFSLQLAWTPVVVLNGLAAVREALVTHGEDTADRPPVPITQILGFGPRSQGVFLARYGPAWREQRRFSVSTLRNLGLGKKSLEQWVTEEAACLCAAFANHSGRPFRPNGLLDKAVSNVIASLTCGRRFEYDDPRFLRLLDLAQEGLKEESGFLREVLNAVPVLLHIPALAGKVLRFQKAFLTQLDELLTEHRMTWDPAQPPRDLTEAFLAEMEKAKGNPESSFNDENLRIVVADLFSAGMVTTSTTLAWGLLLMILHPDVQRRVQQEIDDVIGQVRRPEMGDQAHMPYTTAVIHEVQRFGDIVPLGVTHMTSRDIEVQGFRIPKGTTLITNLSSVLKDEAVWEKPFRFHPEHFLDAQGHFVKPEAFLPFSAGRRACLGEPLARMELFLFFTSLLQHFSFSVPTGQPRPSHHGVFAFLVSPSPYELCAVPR

Consider `Cc1nnc2sc(C(=O)NCc3ccc(S(=O)(=O)C(F)F)cc3)c(N)c2c1C`, for which the CLint scaled in data set [1] is 48.1 mL/min/kg; in data set [2] it was 15.6 mL/min/kg. This compound gave a Fu in [3] of 0.053. In addition, the free fraction (fraction unbound) in data set [4] amounted to 0.062. Also, the IC50 against Cytochrome P450 2D6 is 20.8 µM; at Cytochrome P450 3A4, greater than 30 µM. Moreover, the half-life in data set [5] was 2.4 h. In addition, the Vd in [6] turned out to be 2.9 L/kg. Also, the “K(p,uu,brain)” value in [7] was 0.1. In the data set with Rattus norvegicus, the Activity is on record as 49.3%. The EC50 in data set [8], in data set [9], in data set [10], in data set [11], in data set [12] and in data set [13] was greater than 30 µM throughout. Further, the Kp in data set [14] was determined as 0.11.

Take `Cc1nnc2sc(C(=O)NCc3ccc(S(=O)(=O)C(F)(F)F)cc3)c(N)c2c1C`: the results for the intrinsic metabolic clearance (CLint scaled) in [1] and in [2] were 47.7 mL/min/kg and 19.8 mL/min/kg, respectively. The Fu was 0.019 in [3] and 0.067 in [4]. The IC50 at Cytochrome P450 2D6 and at Cytochrome P450 3A4 was greater than 30 µM throughout. The t1/2 in data set [5] was 5.7 h. Moreover, the Vdss in [6] was 3.1 L/kg. The “K(p,uu,brain)” value in data set [7] is listed as 1.1. Further, the Activity with Rattus norvegicus amounted to 55.3%. Also, the concentration giving a half-maximal response (EC50) in [8], in [9], in data set [10], in [11], in data set [12] and in [13] was greater than 30 µM throughout. Besides, in data set [14], the Kp is 0.49.

Consider `Cc1nnc2sc(C(=O)NCc3ccc(S(F)(F)(F)(F)F)cc3)c(N)c2c1C`, for which the values for the CLint scaled in data set [1] and in data set [2] were 95.9 mL/min/kg and 52.8 mL/min/kg, respectively. In addition, the Fu in data set [3] was found to be 0.01. Moreover, in [4], the fraction unbound was determined as 0.004. In addition, the IC50 on Cytochrome P450 2D6 was 23.9 µM; against Cytochrome P450 3A4, greater than 30 µM. In [5], the half-life is 3.6 h. In addition, the Vd in [6] was found to be 3.1 L/kg. For the same compound, in [7], the “K(p,uu,brain)” value stood at 0.75. The Activity in the data set on Rattus norvegicus turned out to be 66.3%. The EC50 in data set [8], in data set [9], in [10], in [11], in [12] and in [13] was greater than 30 µM each time. Besides, the Kp in [14] was found to be 1.
